ChEMBL document CHEMBL4390673, “Identification of Novel Coumestan Derivatives as Polyketide Synthase 13 Inhibitors against Mycobacterium tuberculosis. Part II” (J Med Chem, 2019)
Converted amounts (≈) assume the structure as drawn.

How the values were obtained:
[1] = test system: Polyketide synthase Pks13 (Mycobacterium tuberculosis (strain ATCC 25618 / H37Rv)), I6X8D2 [D1644G,N1640K]; test: Inhibition of Pks13 D1644G/N1640K double mutant thioesterase domain in Mycobacterium tuberculosis H37Rv assessed as reduction in bacterial growth by microplate alamar blue assay
[2] = test system: Polyketide synthase Pks13 (Mycobacterium tuberculosis (strain ATCC 25618 / H37Rv)), I6X8D2 [D1644G,N1640K]; test: Inhibition of Pks13 D1644G/N1640K double mutant thioesterase domain in drug-susceptible Mycobacterium tuberculosis V4207 assessed as reduction in bacterial growth by microplate alamar blue assay
[3] = test system: Polyketide synthase Pks13 (Mycobacterium tuberculosis (strain ATCC 25618 / H37Rv)), I6X8D2 [D1644G,N1640K]; test: Inhibition of Pks13 D1644G/N1640K double mutant thioesterase domain in multidrug-resistant Mycobacterium tuberculosis V2475 assessed as reduction in bacterial growth by microplate alamar blue assay
[4] = test system: Polyketide synthase Pks13 (Mycobacterium tuberculosis (strain ATCC 25618 / H37Rv)), I6X8D2 [D1644G,N1640K]; test: Inhibition of Pks13 D1644G/N1640K double mutant thioesterase domain in multidrug-resistant Mycobacterium tuberculosis KZN494 assessed as reduction in bacterial growth by microplate alamar blue assay
[5] = test system: Polyketide synthase Pks13 (Mycobacterium tuberculosis (strain ATCC 25618 / H37Rv)), I6X8D2 [D1644G,N1640K]; test: Inhibition of Pks13 D1644G/N1640K double mutant thioesterase domain in extensively drug-resistant Mycobacterium tuberculosis TF274 assessed as reduction in bacterial growth by microplate alamar blue assay
[6] = test system: Polyketide synthase Pks13 (Mycobacterium tuberculosis (strain ATCC 25618 / H37Rv)), I6X8D2 [D1644G,N1640K]; test: Inhibition of Pks13 D1644G/N1640K double mutant thioesterase domain in extensively drug-resistant Mycobacterium tuberculosis R506 assessed as reduction in bacterial growth by microplate alamar blue assay

| Structure (SMILES) | MIC=<90 [1] [µg/mL] | other results |
| --- | --- | --- |
| COc1ccc2oc3c4ccccc4oc(=O)c3c2c1CN1CCCCC1=O | > 64 | – |
| CNC(=O)c1c(-c2ccc(O)cc2)oc2ccc(O)c(CN3CCCCC3)c12 | 0.0313 (≈ 0.0823 µM) | – |
| CC1CCCCN1Cc1c(O)ccc2oc3c4ccccc4oc(=O)c3c12 (stereo unspecified) | 1 (≈ 2.75 µM) | – |
| COCCOc1ccc2oc3c4ccccc4oc(=O)c3c2c1CN1CCCC1=O | > 64 | – |
| CC1COc2c(N3CCN(C)CC3)c(F)cc3c(=O)c(C(=O)O)cn1c23 (stereo unspecified) | – | MIC=<90 [2]: 0.5 µg/mL (≈ 1.38 µM); MIC=<90 [3]: 0.5 µg/mL (≈ 1.38 µM); MIC=<90 [4]: 0.5 µg/mL (≈ 1.38 µM); MIC=<90 [5]: 8 µg/mL (≈ 22.1 µM); MIC=<90 [6]: 4 µg/mL (≈ 11.1 µM) |
| COCCOc1ccc2oc3c4ccccc4oc(=O)c3c2c1CN1CCCCC1=O | > 64 | – |
| O=C1CCCCN1Cc1c(O)ccc2oc3c4ccccc4oc(=O)c3c12 | > 64 | – |
| CC1CCCN(Cc2c(O)ccc3oc4c5ccccc5oc(=O)c4c23)C1 (stereo unspecified) | 2 (≈ 5.5 µM) | – |
| O=C(c1cc2oc3c4ccccc4oc(=O)c3c2cc1O)N1CCCCC1 | > 64 | – |
| O=C(NCC1CC1)c1c(O)ccc2oc3c4ccccc4oc(=O)c3c12 | > 64 | – |
| CO[C@H]1/C=C/O[C@@]2(C)Oc3c(C)c(O)c4c(O)c(c(/C=N/N5CCN(C)CC5)c(O)c4c3C2=O)NC(=O)/C(C)=C\C=C\[C@H](C)[C@H](O)[C@@H](C)[C@@H](O)[C@@H](C)[C@H](OC(C)=O)[C@@H]1C | 0.125 (≈ 0.152 µM) | MIC=<90 [2]: 0.0625 µg/mL (≈ 0.0759 µM); MIC=<90 [3]: 4 µg/mL (≈ 4.86 µM); MIC=<90 [4]: 128 µg/mL (≈ 156 µM); MIC=<90 [5]: > 128 µg/mL; MIC=<90 [6]: > 128 µg/mL |
| O=c1oc2ccccc2c2oc3ccc(O)c(CN4CCCCC4)c3c12 | 0.125 to 0.25 (≈ 0.358 to 0.716 µM) | – |
| CC(C)(C)c1cc(O)c(CN2CCCCC2)c2c1oc1c3cc(O)ccc3oc(=O)c12 | 0.125 (≈ 0.297 µM) | – |
| CC(C)(C)c1cc(O)c(CN2CCCCC2)c2c1oc1c3ccccc3oc(=O)c12 | 0.0625 to 0.125 (≈ 0.154 to 0.308 µM) | – |
| NCC[C@H](O)C(=O)N[C@@H]1C[C@H](N)[C@@H](O[C@H]2O[C@H](CN)[C@@H](O)[C@H](O)[C@H]2O)[C@H](O)[C@H]1O[C@H]1O[C@H](CO)[C@@H](O)[C@H](N)[C@H]1O | 1 (≈ 1.71 µM) | – |
| CC(C)(C)c1cc(O)c(CN2CCCCC2)c2c1oc1c3ccc(O)cc3oc(=O)c12 | 0.0039 (≈ 0.00925 µM) | MIC=<90 [2]: 0.0039 to 0.0078 µg/mL (≈ 0.00925 to 0.0185 µM); MIC=<90 [3]: 0.0156 µg/mL (≈ 0.037 µM); MIC=<90 [4]: 0.001 to 0.002 µg/mL (≈ 0.00237 to 0.00475 µM); MIC=<90 [5]: 0.0039 µg/mL (≈ 0.00925 µM); MIC=<90 [6]: 0.0039 µg/mL (≈ 0.00925 µM) |
| CCOC(=O)c1c(-c2ccccc2)oc2ccc(O)c(CN3CCC(C)CC3)c12 | 1 (≈ 2.54 µM) | – |
| COc1c(N2C[C@@H]3CCCN[C@@H]3C2)c(F)cc2c(=O)c(C(=O)O)cn(C3CC3)c12 | 0.0625 to 0.125 (≈ 0.156 to 0.311 µM) | – |
| O=c1oc2ccccc2c2oc3cc(Br)c(O)c(CN4CCCCC4)c3c12 | > 64 | – |
| O=c1oc2ccccc2c2oc3ccc(O)c(CN4CCCC4)c3c12 | 0.5 (≈ 1.49 µM) | – |
| COc1ccc2oc3c4ccccc4oc(=O)c3c2c1C(=O)N1CCCCC1 | > 64 | – |
| C[C@@H]1NC(=O)[C@@H](N)CNC(=O)[C@H](C2CCNC(=N)N2)NC(=O)/C(=C/NC(N)=O)NC(=O)[C@H](CNC(=O)CC(N)CCCN)NC1=O.N=C1NCCC([C@@H]2NC(=O)/C(=C/NC(N)=O)NC(=O)[C@H](CNC(=O)CC(N)CCCN)NC(=O)[C@H](CO)NC(=O)[C@@H](N)CNC2=O)N1 (stereo partly specified) | 1 | – |

| Structure (SMILES) | MIC=<90 [1] [µg/mL] | other results |
| --- | --- | --- |
| Cc1cc(O)c(CN2CCCCC2)c2c1oc1c3ccccc3oc(=O)c12 | 0.125 (≈ 0.344 µM) | – |
| O=c1oc2ccccc2c2oc3ccc(O)cc3c12 | > 64 | – |
| NNC(=O)c1ccncc1 | 0.04 (≈ 0.292 µM) | MIC=<90 [2]: 0.04 µg/mL (≈ 0.292 µM); MIC=<90 [3]: 16 µg/mL (≈ 117 µM); MIC=<90 [4]: 16 µg/mL (≈ 117 µM); MIC=<90 [5]: 8 µg/mL (≈ 58.3 µM); MIC=<90 [6]: 8 µg/mL (≈ 58.3 µM) |
| C[C@H]1COc2c(N3CCN(C)CC3)c(F)cc3c(=O)c(C(=O)O)cn1c23 | 0.25 (≈ 0.692 µM) | MIC=<90 [2]: 0.125 µg/mL (≈ 0.346 µM); MIC=<90 [5]: 1 µg/mL (≈ 2.77 µM); MIC=<90 [6]: 2 µg/mL (≈ 5.53 µM) |
| O=c1oc2cc(O)ccc2c2oc3ccc(O)c(CN4CCCCC4)c3c12 | 0.0039 (≈ 0.0107 µM) | MIC=<90 [2]: 0.0078 µg/mL (≈ 0.0213 µM); MIC=<90 [3]: 0.0156 µg/mL (≈ 0.0427 µM); MIC=<90 [4]: 0.0039 µg/mL (≈ 0.0107 µM); MIC=<90 [5]: 0.0078 µg/mL (≈ 0.0213 µM); MIC=<90 [6]: 0.0078 µg/mL (≈ 0.0213 µM) |
| O=C(c1c(O)ccc2oc3c4ccccc4oc(=O)c3c12)N1CCCCC1 | > 64 | – |
| COc1cc2oc3c4ccccc4oc(=O)c3c2c(CN2CCCCC2)c1O | 2 (≈ 5.27 µM) | – |
| CCOc1ccc2oc3c4ccccc4oc(=O)c3c2c1CN1CCCCC1=O | > 64 | – |
| O=C1CCCCCN1Cc1c(O)ccc2oc3c4ccccc4oc(=O)c3c12 | > 64 | – |
| O=c1oc2ccccc2c2oc3cc(CN4CCCCC4)c(O)cc3c12 | > 64 | – |
| CC1CCN(Cc2c(O)ccc3oc4c5ccccc5oc(=O)c4c23)CC1 | 0.5 (≈ 1.38 µM) | – |
| O=C1CCCN1Cc1c(O)ccc2oc3c4ccccc4oc(=O)c3c12 | > 64 | – |
| COc1ccc2oc3c4ccccc4oc(=O)c3c2c1CN1CCCC1=O | > 64 | – |
| O=c1oc2cc(O)ccc2c2oc3cc(O)c(O)c(CN4CCCCC4)c3c12 | 2 (≈ 5.24 µM) | – |
| O=c1oc2ccccc2c2oc3cc(O)c(O)c(CN4CCCCC4)c3c12 | 4 (≈ 10.9 µM) | – |
| CC[C@@H](CO)NCCN[C@@H](CC)CO | 1 (≈ 4.89 µM) | – |
| O=c1oc2ccccc2c2oc3cc([N+](=O)[O-])c(O)c(CN4CCCCC4)c3c12 | > 64 | – |
| NC[C@H]1O[C@H](O[C@H]2[C@H](O)[C@@H](O[C@H]3O[C@H](CO)[C@@H](O)[C@H](N)[C@H]3O)[C@H](N)C[C@@H]2N)[C@H](O)[C@@H](O)[C@@H]1O | 2 (≈ 4.13 µM) | MIC=<90 [2]: 2 µg/mL (≈ 4.13 µM); MIC=<90 [3]: 2 µg/mL (≈ 4.13 µM); MIC=<90 [4]: 2 µg/mL (≈ 4.13 µM); MIC=<90 [5]: > 128 µg/mL; MIC=<90 [6]: > 128 µg/mL |
| O=c1oc2ccc(O)cc2c2oc3ccc(O)c(CN4CCCCC4)c3c12 | 0.5 (≈ 1.37 µM) | – |
| O=c1oc2ccccc2c2oc3c(Br)cc(O)c(CN4CCCCC4)c3c12 | 2 (≈ 4.67 µM) | – |
| O=c1oc2ccccc2c2oc3c(Cl)cc(O)c(CN4CCCCC4)c3c12 | 2 (≈ 5.21 µM) | – |
| O=c1oc2cc(O)c(O)cc2c2oc3cc(O)c(O)c(CN4CCCCC4)c3c12 | 32 (≈ 80.5 µM) | – |
